Results as given in patent publication US20100029752A1, “NOVEL COMPOUNDS, PHARMACEUTICAL COMPOSITIONS CONTAINING SAME, AND METHODS OF USE FOR SAME” (priority 2005, published 2010).
Values after ≈ are worked out from the molar mass of the structure shown.

Columns and labels:
[1] = biological target: T1, FAS (Homo sapiens, UniProt P49327); assay: FAS (IC50) marked (SB); type: biochemical; conditions: value marked (SB), not defined
T1 construct: Human FAS was purified from cultured ZR-75-1 human breast cancer cells; endogenous in cells

[2] = test system: fatty acid synthesis pathway activity in MCF-7 human breast cancer cells; assay: [14C]acetate incorporation into total lipids; type: cell-based; conditions: Homo sapiens, MCF7; MCF-7 cells, [14C]acetate into lipids
Description: This assay measures the incorporation of [^14C]acetate into total lipids and is a measure of fatty acid synthesis pathway activity in vitro. It is utilized to measure inhibition of fatty acid synthesis in vitro.
MCF-7 human breast cancer cells cultured as above, are plated at 5×10^4 cells per well in 24-well plates. Following overnight incubation, the compounds to be tested, solubilized in DMSO, are added at 5, 10, and 20 μg/ml in triplicate, with lower concentrations tested if necessary. DMSO is added to triplicate wells for a vehicle control. C75 is run at 5 and 10 μg/ml in triplicate as positive controls. After 4 hours of incubation, 0.25 μCi of [^14C]acetate (10 μl volume) is added to each well.
After 2 hours of additional incubation, medium is aspirated from the wells and 800 μl of chloroform:methanol (2:1) and 700 μl of 4 mM MgCl2 is added to each well. Contents of each well are transferred to 1.5 Eppendorf tubes, and spun at full-speed for 2 minutes in a high-speed Eppendorf Microcentrifuge 5415D. After removal of the aqueous (upper) layer, an additional 700 μl of chloroform:methanol (2:1) and 500 μl of 4 mM MgCl2 are added to each tube and then centrifuged for 1 minutes as above. The aqueous layer is removed with a Pasteur pipette and discarded. An additional 400 μl of chloroform:methanol (2:1) and 200 μl of 4 mM MgCl2 are added to each tube, then centrifuged and aqueous layer is discarded. The lower (organic) phase is transferred into a scintillation vial and dried at 40° C. under N2 gas. Once dried, 3 ml of scintillant (APB #NBC5104) is added and vials are counted for ^14C. The Beckman Scintillation counter calculates the average cpm values for triplicates.
The IC50 for the compounds is defined as the concentration of drug leading to a 50% reduction in [^14C]acetate incorporation into lipids compared to controls. This is determined by plotting the average cpm for each inhibitor concentration tested, performing linear regression and computing the best-fit line, r^2 values, and 95% confidence intervals. The average cpm values are computed by the Beckman scintillation counter (Model LS6500) for each compound concentration. Computation of linear regression, best-fit line, r^2, and 95% confidence intervals are calculated using Prism Version 3.0 (Graph Pad Software).

[3] = test system: MCF-7 human breast cancer cells; assay: XTT cytotoxicity assay (M / MCF7); type: cell-based; conditions: MCF-7 cells, 72 hours
Description: The XTT assay is a non-radioactive alternative for the [^51Cr] release cytotoxicity assay. XTT is a tetrazolium salt that is reduced to a formazan dye only by metabolically active, viable cells. The reduction of XTT is measured spectrophotometrically as OD490-OD650. To measure the cytotoxicity of specific compounds against cancer cells, 9×10^3 MCF-7 human breast cancer cells, obtained from the American Type Culture Collection are plated per well in 96 well plates in DMEM medium with 10% fetal bovine serum, insulin, penicillin, and streptomycin. Following overnight culture at 37° C. and 5% CO2, the compounds to be tested, dissolved in DMSO, are added to the wells in 1 μl volume at the following concentrations: 80, 40, 20, 10, 5, 2.5, 1.25, and 0.625 μg/ml in triplicate. Additional concentrations are tested if required. 1 μl of DMSO is added to triplicate wells are the vehicle control. C75 is run at 40, 20, […], and 5 μg/ml in triplicate as positive controls. After 72 hours of incubation, cells are incubated for 4 hours with the XTT reagent as per manufacturer's instructions (Cell Proliferation Kit 11 (XTT) Roche). Plates are read at OD490 and OD650 on a Molecular Devices SpectraMax Plus Spectrophotometer. Three wells containing the XTT reagent without cells serve as the plate blank. XTT data are reported as OD490-OD650. Averages and standard error of the mean are computed using SOFTmax Pro software ([…]). The IC50 for the compounds is defined as the concentration of drug leading to a 50% reduction in OD490-OD650 compared to controls. The OD490-OD650 are computed by the SOFTmax PRO software (Molecular Devices) for each compound concentration. IC50 is calculated by linear regression, plotting the FAS activity as percent of control versus drug concentrations. Linear regression, best-fit line, r^2, and 95% confidence intervals are determined using Prism Version 3.0 (Graph Pad Software).

[4] = test system: OV; assay: XTT cytotoxicity assay (OV); type: cell-based; conditions: (OV) cells
Description: The XTT assay is a non-radioactive alternative for the [^51Cr] release cytotoxicity assay. XTT is a tetrazolium salt that is reduced to a formazan dye only by metabolically active, viable cells. The reduction of XTT is measured spectrophotometrically as OD490-OD650. After 72 hours of incubation, cells are incubated for 4 hours with the XTT reagent as per manufacturer's instructions (Cell Proliferation Kit 11 (XTT) Roche). Plates are read at OD490 and OD650 on a Molecular Devices SpectraMax Plus Spectrophotometer. Three wells containing the XTT reagent without cells serve as the plate blank. XTT data are reported as OD490-OD650. Averages and standard error of the mean are computed using SOFTmax Pro software (Molecular Dynamics). The IC50 for the compounds is defined as the concentration of drug leading to a 50% reduction in OD490-OD650 compared to controls. The OD490-OD650 are computed by the SOFTmax PRO software (Molecular Devices) for each compound concentration. IC50 is calculated by linear regression, plotting the FAS activity as percent of control versus drug concentrations. Linear regression, best-fit line, r^2, and 95% confidence intervals are determined using Prism Version 3.0 (Graph Pad Software).

[5] = test system: MCF-7 human breast cancer cells; assay: Crystal violet cell growth assay; type: cell-based; conditions: MCF7, MCF-7 cells, 72 hours, read-out: Cr. Violet (IC50)
Description: The crystal violet assay measures cell growth but not cytotoxicity. This assay employs crystal violet staining of fixed cells in 96-well plates with subsequent solubilization and measurement of OD490 on a spectrophotometer. The OD490 corresponds to cell growth per unit time measured. Cells are treated with the compounds of interest or vehicle controls and IC50 for each compound is computed.
To measure the cytotoxicity of specific compounds against cancer cells, 5×10^4 MCF-7 human breast cancer cells, obtained from the American Type Culture Collection are plated per well in 24 well plates in DMEM medium with 10% fetal bovine serum, penicillin, and streptomycin. Following overnight culture at 37° C. and 5% CO2, the compounds to be tested, dissolved in DMSO, are added to the wells in 1 μl volume at the following concentrations: 50, 40, 30, 20, and 10 μg/ml in triplicate. Additional concentrations are tested if required. 1 μl of DMSO is added to triplicate wells are the vehicle control. C75 is run at 10, and 5 μg/ml in triplicate as positive controls.
After 72 hours of incubation, cells are stained with 0.5 ml of Crystal Violet stain (0.5% in 25% methanol) in each well. After 10 minutes, wells are rinsed, air dried, and then solubilized with 0.5 ml 10% sodium dodecylsulfate with shaking for 2 hours. Following transfer of 100 μl from each well to a 96-well plate, plates are read at OD490 on a Molecular Devices SpectraMax Plus Spectrophotometer Average OD490 values are computed using SOFTmax Pro Software (Molecular Devices) and IC50 values are determined by linear regression analysis using Prism version 3.02 (Graph Pad Software, San Diego).

[6] = Weight loss screen; type: in vivo, Balb/C mice; conditions: 60 mg/kg intraperitoneally, day 2
Description: Balb/C mice (Jackson Labs) are utilized for the initial weight loss screening. Animals are housed in temperature and 12 hour day/night cycle rooms and fed mouse chow and water ad lib. Three mice are utilized for each compound tested with vehicle controls in triplicate per experiment. For the experiments, mice are housed separately for each compound tested three mice to a cage. Compounds are diluted in DMSO at 10 mg/ml and mice are injected intraperitoneally with 60 mg/kg in approximately 100 μl of DMSO or with vehicle alone. Mice are observed and weighed daily; average weights and standard errors are computed with Excel (Microsoft). The experiment continues until treated animals reach their pretreatment weights. Select compounds are tested in animals housed in metabolic cages. Dosing of animals are identical to the screening experiments with three animals to a single metabolic cage. Animal weights, water and food consumption, and urine and feces production are measured daily.

[7] = biological target: rat liver acyl-CoA synthetase; conditions: rat liver enzyme; read-out: 50% inhibition of rat liver acyl-CoA synthetase; cited from earlier work
[8] = test system: Raji cells; conditions: cited from earlier work
[9] = biological target: HIV protease (Human immunodeficiency virus type 1 group M subtype B, UniProt P04585); conditions: cited from earlier work
[10] = test system: Mycobacterium tuberculosis; conditions: in vitro; cited from earlier work

T1 sequence (P49327 whole entry): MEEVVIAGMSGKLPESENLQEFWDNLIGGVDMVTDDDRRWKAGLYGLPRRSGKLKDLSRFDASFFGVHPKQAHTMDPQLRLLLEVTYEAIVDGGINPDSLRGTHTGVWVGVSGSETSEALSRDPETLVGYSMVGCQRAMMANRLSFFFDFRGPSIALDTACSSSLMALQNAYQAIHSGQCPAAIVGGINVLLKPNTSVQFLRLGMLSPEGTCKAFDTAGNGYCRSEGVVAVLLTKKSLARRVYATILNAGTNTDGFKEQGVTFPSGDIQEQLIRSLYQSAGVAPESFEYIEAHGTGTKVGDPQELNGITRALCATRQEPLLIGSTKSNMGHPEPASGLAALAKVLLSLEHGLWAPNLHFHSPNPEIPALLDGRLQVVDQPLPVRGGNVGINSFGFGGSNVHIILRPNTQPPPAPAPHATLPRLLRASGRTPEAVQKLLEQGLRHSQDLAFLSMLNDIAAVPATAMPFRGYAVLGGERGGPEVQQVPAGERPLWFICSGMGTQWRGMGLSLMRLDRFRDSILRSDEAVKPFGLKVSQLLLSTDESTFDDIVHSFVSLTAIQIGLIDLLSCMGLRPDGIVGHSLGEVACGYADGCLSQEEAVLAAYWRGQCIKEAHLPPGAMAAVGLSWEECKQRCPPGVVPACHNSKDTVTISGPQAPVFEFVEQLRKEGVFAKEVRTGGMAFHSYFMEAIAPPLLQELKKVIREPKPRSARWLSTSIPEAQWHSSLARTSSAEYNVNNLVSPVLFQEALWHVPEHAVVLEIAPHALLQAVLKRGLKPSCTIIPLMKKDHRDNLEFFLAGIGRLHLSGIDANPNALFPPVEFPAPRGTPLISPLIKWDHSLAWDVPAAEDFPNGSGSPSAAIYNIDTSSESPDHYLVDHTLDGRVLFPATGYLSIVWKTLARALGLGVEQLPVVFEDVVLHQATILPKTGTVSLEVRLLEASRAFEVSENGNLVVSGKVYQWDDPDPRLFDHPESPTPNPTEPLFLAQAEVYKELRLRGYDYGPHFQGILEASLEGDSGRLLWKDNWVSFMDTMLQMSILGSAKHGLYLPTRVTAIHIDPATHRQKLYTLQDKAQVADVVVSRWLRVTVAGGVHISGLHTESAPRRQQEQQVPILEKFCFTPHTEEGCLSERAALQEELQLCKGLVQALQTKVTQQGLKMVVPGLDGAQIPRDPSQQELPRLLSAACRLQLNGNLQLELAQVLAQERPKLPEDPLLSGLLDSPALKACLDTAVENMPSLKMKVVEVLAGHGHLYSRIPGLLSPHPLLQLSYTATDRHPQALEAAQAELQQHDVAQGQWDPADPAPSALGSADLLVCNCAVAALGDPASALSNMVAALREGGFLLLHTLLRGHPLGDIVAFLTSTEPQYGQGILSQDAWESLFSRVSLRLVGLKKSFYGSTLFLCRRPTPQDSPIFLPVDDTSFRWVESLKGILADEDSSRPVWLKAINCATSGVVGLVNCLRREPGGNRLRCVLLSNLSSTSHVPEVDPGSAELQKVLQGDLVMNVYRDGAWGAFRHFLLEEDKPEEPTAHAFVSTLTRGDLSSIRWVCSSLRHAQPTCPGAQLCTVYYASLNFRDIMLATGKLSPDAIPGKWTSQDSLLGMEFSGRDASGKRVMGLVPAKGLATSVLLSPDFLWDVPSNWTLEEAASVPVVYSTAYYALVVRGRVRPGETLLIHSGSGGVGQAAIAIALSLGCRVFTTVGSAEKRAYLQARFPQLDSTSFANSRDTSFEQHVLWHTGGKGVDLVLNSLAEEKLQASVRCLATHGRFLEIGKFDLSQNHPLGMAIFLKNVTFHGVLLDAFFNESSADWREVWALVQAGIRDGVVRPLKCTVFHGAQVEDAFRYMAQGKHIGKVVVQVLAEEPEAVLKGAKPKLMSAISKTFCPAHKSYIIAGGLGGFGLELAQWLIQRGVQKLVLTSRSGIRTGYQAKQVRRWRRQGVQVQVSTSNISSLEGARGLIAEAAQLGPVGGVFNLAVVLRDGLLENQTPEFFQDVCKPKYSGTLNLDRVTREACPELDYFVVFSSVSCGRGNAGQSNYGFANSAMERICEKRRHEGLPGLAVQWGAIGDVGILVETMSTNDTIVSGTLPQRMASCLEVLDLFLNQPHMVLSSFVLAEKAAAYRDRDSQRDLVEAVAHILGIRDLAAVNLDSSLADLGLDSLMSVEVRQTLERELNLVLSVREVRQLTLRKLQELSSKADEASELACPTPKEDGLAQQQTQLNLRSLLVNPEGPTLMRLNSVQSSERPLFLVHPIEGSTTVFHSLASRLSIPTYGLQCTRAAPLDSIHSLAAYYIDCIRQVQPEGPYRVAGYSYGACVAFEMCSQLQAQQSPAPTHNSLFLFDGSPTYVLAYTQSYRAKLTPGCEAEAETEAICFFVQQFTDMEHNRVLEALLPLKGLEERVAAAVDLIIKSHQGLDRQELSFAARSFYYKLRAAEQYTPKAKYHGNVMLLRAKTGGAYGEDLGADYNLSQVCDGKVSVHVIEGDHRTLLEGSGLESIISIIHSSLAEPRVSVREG

| SMILES | IC50 [3] | IC50 [4] | IC50 [1] | other results |
| --- | --- | --- | --- | --- |
| CCCCCCCCNC(=O)c1cc(OCC(=O)OC)cs1 | 41.1 ± 2.6 µg/mL (≈ 126 µM) | 55 µg/mL (≈ 168 µM) |  | FAS (IC50) (SB) [1]: Neg (SB); IC50 [2]: 15.8 µg/mL (≈ 48.3 µM); IC50 [5]: 43.4 µg/mL (≈ 133 µM) |
| O=C(NNC(=O)c1cc(O)cs1)c1ccco1 | > 80 µg/mL | > 80 µg/mL | 135 µM | Weight Loss [6]: 60 mg/kg: 1.5% (day 2) |
| O=C(NNc1ccc(Cl)cc1)c1cc(O)cs1 | 56.9 µg/mL (≈ 212 µM) | 30 µg/mL (≈ 112 µM) | 510 µM |  |
| CCCC=CCC=CC=CC=NN=NO [Triacsin C, 1-hydroxy-3-(E, E, E-2′,4′,7′-undecatrienylidine) triazene] |  |  |  | IC50 [7]: 8.7 µM; concentration causing growth inhibition in Raji cells [8]: 1.0 µM |
| C/C=C/C/C=C/CCC(=O)[C@H]1O[C@H]1C(N)=O [cerulenin, (2S,3R)-2,3-epoxy-4-oxo-7,10 dodecadienoyl amide] |  |  |  | concentration for inhibition of viral HIV protease [9]: 5 mg/mL; activity against Mycobacterium tuberculosis [10]: no activity |
